Data reported in patent publication EP2815749A1, “Solid form of 4-amino-2-(2,6-dioxopiperidine-3-yl)isoindoline-1,3-dione having specified X-ray diffraction pattern” (IP Gesellschaft für Management mbH, priority 2013, dated 2014).
Values belong to the compound of their own block, whether it stands above or below them.

What was measured:
AF508-CFTR = biological target: T1, AF508-CFTR (Homo sapiens, UniProt P13569, DEL508-508); assay: Membrane potential optical assay for potentiation (FLIPR III); type: cell-based; conditions: relative efficacy
T1 construct: expressed in transfected cells
Excerpt: SINGLE CRYSTAL […] OF FORM T: Single crystal analysis was done on a crystal of Form T ({drug7r}) as described above. […] The driving force for the response is the creation of a chloride ion gradient in conjunction with channel activation by a single liquid addition step after the cells have previously been treated with compounds and subsequently loaded with a voltage sensing dye. Identification of Potentiator Compounds: To identify potentiators of AF508-CFTR, a double-addition HTS assay format was developed. […] The driving force for the response is a CI" ion gradient in conjunction with channel activation with forskolin in a single liquid addition step using a fluorescent plate reader such as FLIPR III after the cells have previously been treated with potentiator compounds (or DMSO vehicle control) and subsequently loaded with a redistribution dye. […] HBE grown on Costar® Snapwell™ cell culture inserts were mounted in an Using chamber (Physiologic Instruments, Inc., San Diego, CA), and the transepithelial resistance and short-circuit current in the presence of a basolateral to apical CI" gradient (Isc) were measured using a voltage-clamp system (Department of Bioengineering, University of Iowa, IA). […]

[1] = Polymorph screening: crash cooling; type: physicochemical
Procedure: (§1) Polymorph screening: A polymorph screen was conducted in the methylethyl ketone (MEK)/ water solvent systems, as well as in the acetonitrile (ACN), ACN/water and isopropyl acetate solvent systems. Polymorph screening techniques included crash cooling, solvent evaporation, antisolvent addition, and slurry experiments. Slurry experiments were performed on an IKA RCT hot plate with magnetic stirring set to 710 rpm. The temperature was controlled with an IKA ETS-D5 thermocouple. Solvent volumes were measured and transferred with Gibson Pipetteman volumetric pipettes. New forms that were identified as solvates were subjected to desolvation under two potential conditions: (1) drying in a vacuum oven at 40°C and (2) sitting undisturbed under ambient conditions in a fume hood. Physical characterization of all forms proceeded by X-ray powder diffraction (XRPD) and thermogravimetric analysis (TGA).
Experiment 1: Crash Cooling: A saturated solution of Compound (VII), Form XX was made by preparing 1 mL slurries using acetonitrile (ACN), ACN- water (75:25), methylethyl ketone (MEK), or MEK-water (99:1, 90:10, or 80:20) in vials. After 24 hours in capped HPLC vials, the slurries were then filtered to remove residual solids. Approximately 2 additional milligrams of Compound (VII) was added to each vial containing a saturated solution. Next, the vials were heated to 70°C with stirring until all of the material was completely dissolved. Immediately after, the samples were submerged into an ice bath. The product, which precipitated as a white powder within 1 minute, was isolated by filtration and analyzed by XRPD and TGA.

[2] = Polymorph screening: solvent evaporation; type: physicochemical; conditions: form obtained
Procedure: as §1
A saturated solution was made by slurrying Compound (VII), Form XX in 5 mL of solvent (ACN, isopropyl acetate (IP Ac), or MEK) or 1 mL of solvent for the MEK/Water solvent system. After 24 hours, the residual solids were removed by filtration. The saturated solutions were then subjected to rapid solvent evaporation by blowing nitrogen (N2) gas over the samples with a Pierce Model 18780 Reacti-Vap evaporating unit for four hours. The product precipitated as a white powder and the form was analyzed by XRPD and TGA.

[3] = Polymorph screening: antisolvent addition; type: physicochemical; conditions: form obtained
Procedure: as §1
Experiment 3: Antisolvent Addition: A saturated solution of Compound (VII), Form XX was made by slurrying either in 5 mL of solvent in the ACN, IP Ac, and MEK solvent systems, 2 mL total solvent for IP Ac/water, or 1 mL total solvent for the MEK/water solvent systems. After 24 hours, the residual solids were removed by filtration 20 mL of antisolvent was then quickly added to the saturated solutions to induce precipitation. Hexane was used as the antisolvent in the MEK and IP Ac solvent systems, and MTBE was used as the antisolvent in the ACN solvent systems, as a consequence of the immiscibility between ACN and hexane. The product precipitated as a white powder and the form was analyzed by XRPD and TGA. Table 9.

[4] = Hygroscopicity of pomalidomide Form A (DVS); type: physicochemical
Procedure: Pomalidomide Polymorph Preparations: A weighed sample of pomalidomide (about 100 mg) was treated with 2 mL of a test solvent. The solvents used were either reagent or HPLC grade. The resulting mixture was agitated for at least 24 hours at 25°C. When all of the solids were dissolved by visual inspection, the estimated solubilities were calculated. The solubility was estimated from these experiments based on the total volume of solvent used to give a solution. The actual solubility may be greater than those calculated due to the use of a large amount of solvent or to a slow rate of dissolution. […] A known volume of filtrate was evaporated to dryness and the weight of the residue was measured. Equilibration and evaporation experiments were carried out by adding an excess of pomalidomide to 4 mL of a test solvent. The resulting mixture was agitated for at least 24 hours at 25°C and 50°C separately. […] All of the samples generated as described in the polymorph preparation study were analyzed by XRPD. […] Diffracted radiation was detected by peitier-cooled Si(Li) solid state detector. […] Approximately 2-5 mg of sample was placed into a DSC pan and the weight was accurately recorded. […] Hygroscopicity was determined on a Surface Measurement Systems DVS. Typically a sample size of 10-50 mg was loaded into the DVS instrument sample pan and the sample was analyzed on a DVS automated sorption analyzer at 25°C. […]

[5] = Stability of pomalidomide Form A; type: physicochemical
Procedure: (§2) Hygroscopicity: Dynamic vapor sorption (DVS) analysis was carried out for two preparations of Form A using Surface Measurement Systems DVS. Representative DVS isotherm plots are presented in Figure 23 of WO2013/126326 and Figure 24 of WO2013/126326. In one study, the moisture uptake was less than about 0.14 % (wv'w) up to 95% relative humidity, indicative that pomalidomide Form A is not hygroscopic. […] At the end of desorption, the sample lost all of the weight it gained during the process of moisture sorption. […] The X-ray powder diffractograms are shown in Figure 25 and Figure 26 of WO2013/126326. […] The physical properties of the exposed form A were unchanged as compared to at the start of the study. Form A also appeared to be stable in acetone, acetonitrile, ethanol, ethyl acetate, methyl ethyl ketone, THF, toluene, ethanoi-water (1 : 1) or water at 40°C for at least 4 weeks. Compression Test: A compression test for Form A was carried out by applying 2000-psi pressure to the sample for 1 minute and then analyzing the sample by XRPD. […] Particle Size Distribution: In some embodiments, Form A was prepared as a white, irregular plate crystalline with a particle size D90 < 12 ? . Particle size distribution was determined for various lots of pomalidomide. Table 15: Particle Size Data for Pomalidomide Lots

[6] = Compression test of pomalidomide Form A; type: physicochemical; conditions: 2000-psi pressure for 1 minute
Procedure: as §2

[7] = Solvent System Acetonitrile/H2O

T1 sequence (P13569 with tags, fused parts or gaps DEL508-508): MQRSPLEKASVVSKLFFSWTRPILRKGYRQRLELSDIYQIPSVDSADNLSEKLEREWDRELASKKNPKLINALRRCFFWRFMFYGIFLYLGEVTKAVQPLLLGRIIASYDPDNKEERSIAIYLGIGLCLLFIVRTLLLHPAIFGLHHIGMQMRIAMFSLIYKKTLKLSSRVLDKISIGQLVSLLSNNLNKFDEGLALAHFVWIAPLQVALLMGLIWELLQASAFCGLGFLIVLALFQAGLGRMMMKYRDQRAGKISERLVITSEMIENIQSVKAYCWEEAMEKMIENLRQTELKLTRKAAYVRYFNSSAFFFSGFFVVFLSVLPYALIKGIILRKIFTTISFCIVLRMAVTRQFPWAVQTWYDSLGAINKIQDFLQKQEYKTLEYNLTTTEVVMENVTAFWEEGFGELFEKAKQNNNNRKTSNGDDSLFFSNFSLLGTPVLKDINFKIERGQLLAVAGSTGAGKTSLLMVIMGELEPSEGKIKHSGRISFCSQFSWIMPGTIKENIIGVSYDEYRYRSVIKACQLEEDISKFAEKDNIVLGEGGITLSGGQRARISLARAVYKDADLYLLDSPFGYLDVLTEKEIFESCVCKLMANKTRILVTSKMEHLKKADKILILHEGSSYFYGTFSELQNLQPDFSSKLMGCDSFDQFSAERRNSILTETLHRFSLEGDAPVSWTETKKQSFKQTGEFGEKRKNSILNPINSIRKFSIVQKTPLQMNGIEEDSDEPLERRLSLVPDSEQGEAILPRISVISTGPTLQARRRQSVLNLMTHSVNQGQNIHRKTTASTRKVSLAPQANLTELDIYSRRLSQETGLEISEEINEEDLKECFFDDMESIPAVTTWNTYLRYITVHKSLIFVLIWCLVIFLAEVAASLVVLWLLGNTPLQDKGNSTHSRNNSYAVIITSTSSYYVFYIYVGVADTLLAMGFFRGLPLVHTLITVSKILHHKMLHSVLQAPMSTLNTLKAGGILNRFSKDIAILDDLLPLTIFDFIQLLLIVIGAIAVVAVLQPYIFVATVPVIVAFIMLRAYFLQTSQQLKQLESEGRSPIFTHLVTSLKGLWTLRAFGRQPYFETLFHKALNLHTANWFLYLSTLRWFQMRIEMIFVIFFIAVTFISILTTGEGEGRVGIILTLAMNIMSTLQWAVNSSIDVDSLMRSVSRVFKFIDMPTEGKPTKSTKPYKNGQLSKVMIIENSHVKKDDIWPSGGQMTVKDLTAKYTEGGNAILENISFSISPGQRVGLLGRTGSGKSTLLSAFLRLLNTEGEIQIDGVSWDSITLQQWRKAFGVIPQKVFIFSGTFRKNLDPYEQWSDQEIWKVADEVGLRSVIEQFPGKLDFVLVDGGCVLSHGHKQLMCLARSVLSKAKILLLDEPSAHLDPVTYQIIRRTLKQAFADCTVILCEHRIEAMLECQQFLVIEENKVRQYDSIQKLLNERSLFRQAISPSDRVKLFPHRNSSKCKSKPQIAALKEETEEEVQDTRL

% Activity (AF508-CFTR): ++ ("++" means between 25% to 100%)
Solvate Polymorph ([1]; Solvent System Acetonitrile): Form D
Solvate Polymorph [1, 7]: Form D
Solvate Polymorph ([1]; Solvent System MEK): Form E
Solvate Polymorph ([1]; Solvent System MEK/H2O (80:20)): Form E
Solvate Polymorph ([1]; Solvent System MEK/H2O (90:10)): Form E
Solvate Polymorph ([1]; Solvent System MEK/H2O (99:1)): Form E
Solvate Polymorph ([1]; Solvent System Water): not soluble
Solvent Evaporation [2, 7]: Form F
Solvent Evaporation ([2]; Solvent System IPAc): Form G Semi-crystalline
Solvent Evaporation ([2]; Solvent System IPAc/H2O): Form H
Solvent Evaporation ([2]; Solvent System MEK): Form I
Solvent Evaporation ([2]; Solvent System MEK/H2O (80:20)): Form E
Solvent Evaporation ([2]; Solvent System MEK/H2O (90:10)): Form E
Solvent Evaporation ([2]; Solvent System MEK/H2O (99:1)): Form J
Solvent Evaporation ([2]; Solvent System Water): not soluble
Antisolvent Addition ([3]; Solvent System IPAc/H2O): Form T
Antisolvent Addition ([3]; Solvent System MEK): Form K
Antisolvent Addition ([3]; Solvent System MEK/H2O (80:20)): Form K
Antisolvent Addition ([3]; Solvent System MEK/H2O (90:10)): Form K
Antisolvent Addition ([3]; Solvent System MEK/H2O (99:1)): Form K
Antisolvent Addition ([3]; Solvent System Water): not soluble
Structure (SMILES): CC(C)(C)c1cc(C(C)(C)C)c(NC(=O)c2c[nH]c3ccccc3c2=O)cc1O [Compound (VII), N-[2,4-bis(1,1-dimethylethyl)-5-hydroxyphenyl]-1,4-dihydro-4-oxoquinoline-3-carboxamide]

Structure (SMILES): Nc1cccc2c1C(=O)N(C1CCC(=O)NC1=O)C2=O (stereo not drawn) [pomalidomide Form A, 4-amino-2-(2,6-dioxopiperidine-3-yl)isoindoline-1,3-dione]
mass change over the dry mass ([4]; relative humidity increased from 0 to 95%, another study): less than 0.11%
moisture uptake ([4]; up to 95% relative humidity, one study): less than 0.14 % (wv'w)
physical properties after exposure ([5]; 40°C/75% RH environment for four weeks): unchanged
time stable in solvent ([5]; acetone, acetonitrile, ethanol, ethyl acetate, methyl ethyl ketone, THF, toluene, ethanol-water (1:1) or water at 40°C): at least 4 weeks
XRPD pattern after compression [6]: unchanged
